In patent US5360809A, “Imidazole compounds and their use as calcium channel blockers” (NeuroSearch A/S, priority 1992, dated 1994):

The compounds below were run on voltage operated calcium channels (P- and L-type), rat synaptosomes (assay: 45Ca influx into rat synaptosomes under depolarized conditions). Settings: depolarization induced 45Ca uptake, rat cortex synaptosomes.
Assay type: biochemical, rat (male Wistar)
Text: A high influx of calcium from extracelluar compartments into neurons is seen after opening of voltage operated calcium channels. Such opening of calcium channels may be induced by depolarization of neuronal membranes. A crude synaptosome preparation contains small vesicles surrounded by neuronal membranes, and it is possible to study an opening of the voltage operated calcium channels in such a preparation. In the below described test influx of ^45 Ca into rat synaptosomes is studied under depolarized conditions. The effect of test substances on the depolarization induced calcium uptake can thus be studied.
The compounds of the present invention which potently block the calcium influx of up to 20 to 40% in this test are believed to be blockers of predominantly the P-type of calcium channels and the compounds of the present invention, which at somewhat higher concentrations block the calcium influx more completely or totally, are believed to be both P- and L-type calcium channel blockers, or predominantly L-type of calcium channel blockers.
The cerebral cortex from a male Wistar rat is homogenized in 20 ml ice cold 0.32M saccharose. In the following steps the temperature is kept at 0° C. to 4° C. The homogenate is centrifuged at 1,000×g for 10 minutes and the supernatant recentrifuged for 20 minutes at 18,000×g. The obtained pellet is resuspended in 0.32M saccharose (10 ml per g of original tissue). Aliquots of 0.05 ml of the hereby obtained synaptosome suspension are added to glass tubes containing 0.625 ml of a NaCl buffer (136 mM NaCl, 4 mM KCl, 0.35 mM CaCl2, 1.2 mM MgCl2, 20 mM Tris HCl, 12 mM glucose, pH 7.4) as well as 0.025 ml of different test substances in 48% ethanol. These tubes are pre-incubatedfor 30 minutes on ice and thereafter for 6 minutes at 37° C. ^45 Ca uptake is initiated by addition to above glass-tubes of 0.4 ml ^45 CACl2 (specific activity: 29-39 Ci/g; […]). […] The radioactivity on the filters are measured by liquid scintillation spectrometry. […]
Compound `FC(F)(F)c1ccc2c(c1)ncn2-c1cccc(-c2ccsc2)c1` [1-[3-(3-thienyl)phenyl-5-trifluoromethyl]-benzimidazole] has an IC50 of 3.4 µM.
`Fc1ccc2c(c1)ncn2-c1ccc(I)cc1` [1-(4-iodophenyl)-5-fluoro-benzimidazole] was tested, and the IC50 was 7 µM.
With `Nc1cccc(-c2cccc(-n3cnc4cc(C(F)(F)F)ccc43)c2)c1` [1-[3-(3-aminophenyl)-phenyl]-5-trifluoromethyl-benzimidazole] the IC50 was 14 µM.
